Results from patent publication US11168052B2, “Carbamate derivative compounds, processes for preparing them and their uses” (BIO-PHARM SOLUTIONS CO., LTD., priority 2016, dated 2021).

Assays:
[1] = system: CFA-induced pain model in rats; test: Antiallodynic activity on Complete Freund's Adjuvant (CFA)-induced inflammatory pain model; type: in vivo, Sprague-Dawley rats; settings: Rattus norvegicus, ip, 50 mg/kg intraperitoneally, von Frey threshold relative to sham, 0.5 hr after administration, read-out: Efficacy of 50 mg/kg(%)
Description: Male, Sprague-Dawley rats (210-250 g, Nara Bio, Korea) were habituated for 1 week before surgery and allowed free access to food and water throughout the experimentation. Room temperature and humidity were maintained at 24±2 and 50±10%, respectively.
CFA-induced inflammatory pain was induced by the procedure of Nagakura et al. (2003) and Gregory P. et al. (2010) with minor modifications. CFA (sigma, USA) was injected in the right plantar with a 100 ul volume under gaseous anesthesia with isoflurane. Sham controls were injected with 100 ul of saline, and preparation of the vehicle controls were identical to the group treated with compound, except for administration of vehicles without indentical to the vihecle control group.
Tactile sensitivity (Mechanical allodynia) was evaluated using von Frey monofilaments before and after treatment, and animals were include in the study only if the withdrawal threshold value was less than 4 g. One week after CFA injection, CFA-infused animals, sham-operated animal, and vehicle-operated animals were tested for tactile sensitivity with von Frey monofilaments, with 3 trials for each animal. All Animals were placed in a stainless steel mashe chamber and habituated for 30 min in the test cage. The tactile sensitivity for ipsilateral hind paw was measured using the up-and-down method (Dixon, 1980) with seven von Frey monofilaments (0.4, 1, 2, 4, 6, 8, and 15 g) to 3 trials. The tactile sensitivity test was followed by Dixon's method (Dixon, 1980). The 50% paw withdrawal threshold for each paw was calculated using the following formula: [Xth]log=[vFr]log+ky where [vFr] is the force of the last von Frey used, k=0.2249 which is the average interval (in log units) between the von Frey monofilaments, and y is a value that depends upon the pattern of withdrawal responses (Dixon, 1980).
Antiallodynic effect of compounds was evaluated at the dose of 50 mg/kg (n=4-6), intraperitoneally administrated in a volume of 5 ul/g bw in a vehicle of 30% (v/v) PEG or 20% (v/v) Tween 80. The test was performed peak time of efficacy (0.5 hr) after compound administration.
The relative values compared to the sham (% control) were calculated and shown in Table 5, which show an antiallodynic effect of Compound 1 on CFA-induced pain model in rats.

[2] = system: ICR mice on hot plate; test: Hot-plate test; type: in vivo; settings: Mus musculus, po, orally, withdrawal latency
Description: To examine the pain relief effect of the carbamate compounds, a hot-plate test was conducted in referring to Current Protocols in Neuroscience; Behavioral Neuroscience Unit 8.9.
(§1) ICR mice (male, 25-28 g; Orient Bio, Korea) were habituated before test (in test room) for 1 hour. Animals were fasted 2 hr before administration of compounds. Compounds were orally administered at the three dose, 10 ul/g, by bodyweight (n=4-6/group). All compounds were dissolved in a vehicle of 30% (v/v) PEG 400 or 20% (v/v) Tween 80. The control group was treated the vehicle without compounds.
0.25-2.0 hr after the administration of compounds, the mice were put on a hot plate pre-heated to 55±1 (Hu, X. et al, 2008), and then, the withdrawal latency time was measured (cut-off time: 30 sec) until the point when each mouse was taking a paw off from the plate, shaking, licking a paw or hind leg, or jumping from the plate.

[3] = system: ICR mice, tail-flick analgesia meter; test: Tail-flick test; type: in vivo; settings: orally, withdrawal latency
Description: To examine the pain relief effect of the carbamate compounds, a tail-flick test was conducted, referring to Current Protocols in Neuroscience; Behavioral Neuroscience Unit 8.9.
as §1, with “25-30g;” for “25-28 g;”, “Each of Compound was” for “Compounds were”, “1-3” for “three”
After the administration of compounds, the mice tail were put on a tail-flick analgesia meter. To avoid tissue damage, maximal exposure time to pain stimuli was restricted to 15 s. The withdrawal latency was measured to the time to the point when each mouse responded. The relative values compared to the control (% control) were calculated.
The relative values compared to the sham were calculated and shown in Table 7, which show effect of the compound of examples on tail-flick test in Mice.

[4] = system: MES (electroshock) seizure in mice; test: Anti-epilepsy activity, MES test in mouse; type: in vivo, ICR mice; settings: po
Description: (§2) In the MES test (Ref., G. Villetti et al. Neuropharmacology 40(2001) 866-878), an electrical stimulus (mice: 50 mA, 60 Hz, 0.2 sec, and rats: 150 mA, 60 Hz, 0.2 sec in the test animal) supplied by an 11A Shocker (IITC Life Science Company) was delivered through corneal electrodes. All mice or rats assigned to any electroshock at peak time were treated with each test compound sample which was dissolved in 20% tween 80 prepared by saline solvent applied orally before the test. […] Three doses of the test sample were administered orally to 9-18 animals (3-6 mice per dose) for evaluating the respective doses at which 50% of the animals were protected from seizure (ED50). The ED50 value (median effective dose) was calculated by Litchfield and Wicoxon log-probit method which is a dose-response relationship. Experimental animals, male ICR mice and male SD rats, were purchased from OrientBio, Samtako, or Nara Biotech, Korea, and housed in cages (4-5 mice or 3 rats per cage) for 4-5 days. The range of mice body weight was between 19 and 25 grams and range of rats body weight was between 100 and 130 grams.

[5] = system: MES (electroshock) seizure in rats; test: Anti-epilepsy activity, MES test in rats; type: in vivo, SD rats; settings: Rattus norvegicus, po
Description: as §2

[6] = system: PTZ (Pentylenetetrazol)-induced clonic seizure in rats; test: Anti-epilepsy activity, scPTZ test in rats; type: in vivo, SD rats
Text: (§3) In this experiment, each test compound sample was formulated as described in Biological Experimental Example 1, and administered intraperitoneally to the test animals (mice; ICR or Rat; SD); Experimental animals, male ICR mice and male SD rats, were purchased from OrientBio or Nara biotech, Korea, and housed 4-5 mice per a cage for 4-5 days. The range of mice body weight was used between 19 and 26 grams and range of rats body weight was used between 100 and 130 grams. After Peak time (0.5, 1, 2 and 4 hr) from the administration, PTZ (Pentylenetetrazol) was administered subcutaneously in the concentration capable of inducing 97% intermittent convulsions (mice: 100-110 mg/kg?bw, 10 μl/g, or rats: 90-110 mg/kg?bw, 2 μl/g). If clonic seizure was not observed for at least 30 minutes in the PTZ administered animal, it can be considered that the test compound has anti-epilepsy activity. The median effective dose (ED50) is determined using 6 animals per a concentration (total three different concentrations), and calculated by Litchfield and Wicoxon log-probit method which is a dose-response relationship.

[7] = system: Lithium-pilocarpine induced seizure in rats; test: Lithium-pilocarpine induced epilepsy test (LI-PILO), prevention test; type: in vivo, Sprague-Dawley rats; settings: Rattus norvegicus, ip, prevention, read-out: Lithium pilocarpine model (pre) ED50
Description: Male Sprague-Dawley rats (purchased from Orient Bio Inc. Korea) of body weight 175 grams were used for these studies and 3 rats per cage were housed for 4-5 days. On the day prior to SE, rats received 127 mg/kg lithium chloride (Sigma, St. Louis, Mo., U.S.A.) intraperitoneally (i.p.). Approximately 18-20 h following this treatment, rats were given an i.p. injection of the concentration capable of inducing 97% intermittent convulsions pilocarpine(Sigma, 30-43 mg/kg). An i.p. injection of 2 mg/kg methyl-scopolamine (Sigma) was administered 30 min prior to pilocarpine to block the effects of the muscarinic agonist on peripheral cholinergic receptors. Test drugs were dissolved in 20% tween80 (Sigma).
The drugs were administered intraperitoneally (i.p.) in a volume of 2 μl/g body weight. Pharmacological effects of all of the test materials were evaluated to compare test groups (n=6) with a control group (n=6). Control group was administered vehicle only. The efficacy was measured 0.5, 1, 2, or 4 hours after the administration of the test material. The time point that the most animals were protected was defined as peak time and the ED50 was determined at peak time. The animals were then transferred to observation cages and observed continuously for 90 min Seizure was elicited in approximately 95% of the control group. Protection was defined as complete absence of seizure grade 3-5 (Racine scale; Racine, 1972) over the 90-min observation period. The effective dose of the compound necessary to protect 50% of the animals against seizures compared to controls (i.e., ED50) was determined by a curve fitting program (Excel 2007, Microsoft).

[8] = system: PTZ (Pentylenetetrazol)-induced clonic seizure in mice; test: Anti-epilepsy activity, scPTZ test in mouse; type: in vivo, ICR mice; settings: ip
Text: as §3

[9] = system: Picrotoxin (PIC)-induced clonic seizure in mice; test: Chemical induced seizure model (PIC); type: in vivo, ICR mice; settings: mice, dose 50 mg/kg
Description: Picrotoxin (PIC) were used to induce the behavioral seizures in the experiments. Male ICR mice (purchased from Orient Bio Inc. Korea) of body weight 19-26 g (mice) were used for these studies. The test materials were administered intraperitoneal (ip) route in a volume of 10 ul/g (mice) weight in rats or mice, respectively. Pharmacological effects of the test materials were evaluated to compared test groups (n=6) with a control group (n=6). Control group was administrated vehicle, only. The peak time was determined by administration of test material's random dose for 0.5, 1, 2, 4 hour. The time that the most protect was defined as a peak time and ED50 was determined by other dose administration at the peak time. Chemical (PIC) was dissolved in 0.9% saline and administered subcutaneously (s.c.) at its CD97 (convulsive dose 97%), the dose of Chemical (PIC) that produced clonic seizures in 97% into a loose fold of skin in the midline of the neck in a volume of 10 ul/g (mice) body weight. The animals were then transferred to observation cages and observed continuously for 45 min. Clonic seizure was elicited in approximately 97% of control group. Protection was defined as a complete absence of clonic seizure over the 45-min observation period. The effective dose of compound necessary to protect against generalized convulsive seizures to 50% of controls (i.e., ED50) was determined by log probit analysis using SPSS software program (SPSS Inc.). (Reference; White H. S., J. H. Woodhead, K. S. Wilcox, J. P. Stables, H. J. Kupferberg, and H. H. Wolf. General Principles; Discovery and Preclinical Development of Antiepileptic Drugs. In: R. H. Levy, R. H. Mattson, B. S. Meldrum, and E. Perucca, eds. Antiepileptic Drugs, 5th Ed. Lippincott Williams & Wilkins, Philadelphia 2002: pp. 36-48.) The obtained results are shown in following Table 10.

[10] = system: corneally kindled rats; test: Corneal kindling (CK) rat model; type: in vivo, Sprague-Dawley rats; settings: po
Text: Male Sprague-Dawley rats (purchased from Orient Bio Inc. Korea) of body weight 85-100 g were used for these studies. The MES test using the electroshock seizure apparatus designed by Rodent Shocker Type221 (Hugo Sachs Elektronik, Germany). The kindled rat models were electrically stimulated (8 mA, 60 Hz, 2 s, corneal electrodes) twice daily for 21 days until stage 5 seizure scored by Racine's scale (Racine, 1972) were evoked. The kindled rats were fasted and adapted to test condition, for at least 1 hour before the administration of test material. The drugs were administered orally (p.o.) in a volume of 4 μl/g body weight. The corneally kindled rat model test is a model for generalized […] seizures or bipolar disorder and identifies the compound which prevents seizure or bipolar disorder spread. The shock level was set at 8 mA, 60 Hz and the duration was set at 2 s. A drop of 0.9% saline was placed in each eye, the electrodes were placed over the eyes, and the shock was administered immediately. Pharmacological effects of the test materials were evaluated to compare the test groups (n=6) with a control group (n=6). Control group was administrated vehicle, only. The peak time was determined by administration test material's random dose for 0.5, 1, 2, 4 hour. The time that the most protect was defined peak time and ED50 was determined by other dose administration at peak time. […]

For NC(=O)O[C@H]1Cc2cccc(Cl)c2[C@H]1O [Example 52, (1R, 2S)-7-chloro-1-hydroxy-2,3-dihydro-1H-inden-2-yl carbamate], the response vs control in vivo at 50 mg/kg [1] was 34.7%, the ED50 [2] was 119 mg/kg and the “Tail-flick test Dose” value [3] was greater than 200 mg/kg. For the same compound, the ED50 [4] was 24.3 mg/kg, the ED50 [5] was 10.9 mg/kg and the “scPTZ test (ip) efficacy %” value ([6]; dose 100 mg/kg) was 100 (33.3%,. The ED50 [7] was 63 mg/kg.

NC(=O)O[C@H]1CCc2cccc(Cl)c2[C@H]1O [Example 2, (1R, 2S)-8-chloro-1-hydroxy-1,2,3,4-tetrahydronaphthalen-2-yl carbamate] was tested, and the response vs control in vivo at 50 mg/kg [1] was 23.2%, the ED50 [4] was 41 mg/kg and the ED50 [5] was 11.6 mg/kg. The ED50 [8] was 26.6 mg/kg, the ED50 ([6]; Rattus norvegicus, ip) was 39.7 mg/kg and the ED50 [7] was 50 mg/kg. For the same compound, the “PIC(ip) efficacy %” value [9] was 50 (66.6%).

With NC(=O)O[C@@H]1Cc2cc(Cl)cc(Cl)c2[C@@H]1O [Example 59, (1S, 2R)-5,7-dichloro-1-hydroxy-2,3-dihydro-1H-inden-2-yl carbamate] the ED50 [4] was 56.5 mg/kg and the ED50 [10] was 21.4 mg/kg.
